The values that follow come from the RepoRT retention time repository.

This data set in a line: HILIC, Waters ACQUITY UPLC BEH Amide, 100 × 2.1 mm, 1.7 µm; A: water + 0.125% formic acid + 10 mM ammonium formate; B: 5% water + 95% acetonitrile + 0.125% formic acid + 10 mM ammonium formate; gradient (min/%B) 0/100 2/100 7.7/70 9.5/40 10.25/30 12.75/100 17/100. The note with it: stereoisomer not certain.
For `CN(C)c1nc2c(ncn2C2OC(CO)C(O)C2O)c(=O)[nH]1` (stereo not given) [N2,N2-Dimethylguanosine], the LC retention time stood at 5.62 min.

Regarding `Cc1cccc(Nc2ccncc2S(=O)(=O)NC(=O)NC(C)C)c1` [Torasemide], the LC retention time turned out to be 1.45 min.

On to `Cc1[nH]cnc1CN1CCc2c(c3ccccc3n2C)C1=O` [Alosetron], for which the LC retention time was 4.19 min.

For `CC(=O)NCCCCCCNC(C)=O`, the LC retention time was 1.5 min.

As to `CN(C)CCC=C1c2ccccc2COc2ccccc21` [Doxepin], the LC retention time came to 2.26 min.

As to `CSCCCN` [3-Methylthiopropylamine], the LC retention time was 5.16 min.

In the case of `CCC(O)CC(=O)O` (stereo not given) [3-Hydroxyvaleric acid], the LC retention time came to 1.29 min.

As for `Nc1ncnc2c1ncn2C1OC2COP(=O)(O)OC2C1O` (stereo not given) [Adenosine 3',5'-cyclic monophosphate], the LC retention time came to 7.62 min.

For `Nc1nc2ccc(OC(F)(F)F)cc2s1` [Riluzole], the LC retention time turned out to be 1.03 min.

`CN1CCN(c2c(F)cc3c(=O)c(C(=O)O)cn4c3c2SCC4)CC1` [Rufloxacin]: the LC retention time was 4.65 min.

Turning to `Cc1nc2n(c(=O)c1CCN1CCC(c3noc4cc(F)ccc34)CC1)CCCC2` [Risperidone], the LC retention time stood at 3.52 min.

For `NC(Cc1c[nH]c2ccc(O)cc12)C(=O)O` (stereo not given) [5-Hydroxytryptophan], the LC retention time worked out at 7.48 min.

Consider `CN1C2CCC1C(C(=O)O)C(O)C2` (stereo not given) [Ecgonine], for which the LC retention time worked out at 7.61 min.

In the case of `CC(NC(CCc1ccccc1)C(=O)O)C(=O)N1CCCC1C(=O)O` (stereo not given) [Enalaprilat], the LC retention time was 7.07 min.

`NCCCCNCCCN` [Spermidine]: the LC retention time was 6.98 min.

In the case of `NC(=O)NC(N)=O` [Biuret], the LC retention time came to 2.73 min.

As for `CN1CCC(=C2c3ccccc3CC(=O)c3sccc32)CC1` [Ketotifen], the LC retention time amounted to 2.71 min.

Take `C[N+](C)(C)CC(O)CC(=O)[O-]` (stereo not given) [Carnitine]: the LC retention time was 7.83 min.

Turning to `CS(=O)(=O)c1ccc(C2=C(c3ccccc3)C(=O)OC2)cc1` [Rofecoxib], the LC retention time was found to be 0.97 min.

On to `CC(C)=CCNc1ncnc2nc[nH]c12` [Isopentenyladenine], for which the LC retention time was found to be 1.81 min.

Turning to `CN1C(CC(=O)c2ccccc2)CCCC1CC(O)c1ccccc1` (stereo not given) [Lobeline A], the LC retention time was found to be 2.02 min.

In the case of `CN1C2CCCC1CC(NC(=O)c1nn(C)c3ccccc13)C2` (stereo not given) [Granisetron], the LC retention time worked out at 4.12 min.

In the case of `Nc1ccnc(=O)[nH]1` [Cytosine], the LC retention time was 5.9 min.

In the case of `COc1ccc(CC(C)NCC(O)c2ccc(O)c(NC=O)c2)cc1` (stereo not given) [Formoterol], the LC retention time came to 5.18 min.

`NCc1[nH]cc(CCC(=O)O)c1CC(=O)O` [Porphobilinogen]: the LC retention time came out at 7.4 min.

For `CNC(Cc1ccccc1)C(=O)O` (stereo not given) [N-Methylphenylalanine], the LC retention time is 6.22 min.

On to `Nc1c(O)cccc1C(=O)O` [3-Hydroxyanthranilic acid], for which the LC retention time was 1.48 min.

Consider `Cc1cc2c(s1)Nc1ccccc1N=C2N1CCN(C)CC1` [Olanzapine], for which the LC retention time came to 4.56 min.

Take `CN(C)CCc1c[nH]c2ccc(Cn3cncn3)cc12` [Rizatriptan]: the LC retention time was 5.11 min.

In the case of `CN1CCC2(c3cccc(O)c3)Cc3nc4ccccc4cc3CC2C1` (stereo not given), the LC retention time is 5.11 min.

For the compound `NCC(=O)NC(Cc1ccc(O)cc1)C(=O)O` (stereo not given) [Gly-Tyr], the LC retention time was found to be 8.07 min.

As for `Oc1cc2ccccc2[nH]1` [2-Indolinone], the LC retention time is 1.36 min.

With `O=C(CCCN1CCC(O)(c2ccc(Cl)cc2)CC1)c1ccc(F)cc1` [Haloperidol], the LC retention time worked out at 2.31 min.

`O=C(O)CCNC(=O)c1ccc(N=Nc2ccc(O)c(C(=O)O)c2)cc1` [Balsalazide]: the LC retention time was found to be 4.85 min.

Take `CC(Cc1ccc(C(C)C(=O)O)cc1)C(=O)O` (stereo not given) [Carboxyibuprofen]: the LC retention time was determined as 1.11 min.

`O=C(O)CNC(=O)OCc1ccccc1` [N-Benzyloxycarbonylglycine]: the LC retention time was 7.67 min.

For the compound `OCCN1CC(O)C(O)C(O)C1CO` (stereo not given) [Miglitol], the LC retention time was 8.12 min.

As to `O=C(OC1C(Oc2ccccc2COC(=O)C2(O)C=CCCC2=O)OC(CO)C(O)C1O)c1ccccc1` (stereo not given) [Tremulacin], the LC retention time was 1.51 min.

As to `OCC1OCC(O)C(O)C1O` (stereo not given) [1,5-Anhydrosorbitol], the LC retention time is 0.92 min.

For the compound `O=c1cnn(C2OC(CO)C(O)C2O)c(=O)[nH]1` (stereo not given) [6-Azuridine], the LC retention time worked out at 4.31 min.

Consider `COc1ccc(C(CN(C)C)C2(O)CCCCC2)cc1` (stereo not given) [Venlafaxine], for which the LC retention time came to 2.44 min.

For `CC(C)C(NC(=O)CN)C(=O)O` (stereo not given) [Gly-val], the LC retention time was 8.05 min.

Consider `O=C(c1ccccc1)c1c(O)cc(O)cc1O` [Phlorobenzophenone], for which the LC retention time was found to be 1.34 min.

As to `Cc1cc(=O)oc2cc(O)ccc12` [4-Methylumbelliferone], the LC retention time is 1.22 min.

With `NC(CC(=O)O)C(=O)O` (stereo not given) [Aspartic acid], the LC retention time came to 9.33 min.

For `C[Si](C)(C)CCC(=O)O` [3-Trimethylsilylpropionic acid], the LC retention time came out at 5.64 min.

As to `CC=C1N(C)C(C)CC1(c1ccccc1)c1ccccc1` (stereo not given) [EDDP], the LC retention time worked out at 1.9 min.

For `COc1cc(OC)c(C(=O)CCCN2CCCC2)c(OC)c1` [Buflomedil], the LC retention time was determined as 2.34 min.

Turning to `NC(N)=NOCCC(N)C(=O)O` (stereo not given) [Canavanine], the LC retention time is 9.42 min.

Take `CCNC(C)Cc1cccc(C(F)(F)F)c1` (stereo not given) [Fenfluramine]: the LC retention time was determined as 2.33 min.
